Patent US6034113A, “Derivatives of 1,3,4-oxadiazolone” (Bristol-Myers Squibb Company, priority 1999, dated 2000)

Tests used:
[1] = test system: cloned mammalian (mSlo or hSlo) BK; assay: BK-mediated outward current, two-electrode voltage clamp in Xenopus oocytes; format: cell-based; settings: 1 μM; at least 5 oocytes; mSlo or hSlo expressed in Xenopus oocytes
Method: (§1) The ability of the compound of Example 1 to open BK channels and increase whole-cell outward (K^+) BK-mediated currents was assessed under voltage-clamp conditions by determining their ability to increase cloned mammalian (mSlo or hSlo) BK--mediated outward current heterologously expressed in Xenopus oocytes [Butler, A., et al., Science, 261, pp. 221-224 (1993); and Dworetzky, S. I., et al., Mol. Brain Res., 27, pp.189-193 (1994)]. The two BK constructs employed represent nearly structurally identical homologous proteins, and have proven to be pharmacologically identical in our tests. To isolate BK current from native (background, non-BK) current, the specific and potent BK channel-blocking toxin iberiotoxin (IBTX) [Galvez, A., et al., J. Biol. Chem, 265, pp. 11083-11090 (1990)] was employed at a supramaximal concentration (50 nM). The relative contribution of BK channels current to total outward current was determined by subtraction of the current remaining in the presence of IBTX (non-BK current) from the current profiles obtained in all other experimental conditions (control, drug, and wash). […]

[2] = test system: non-BK native currents in the oocytes; assay: Effect on non-BK native currents (IBTX-insensitive) in oocytes; format: cell-based, Xenopus; settings: at the tested concentration; current remaining in presence of 50 nM IBTX
Method: as §1

[3] = test system: focal cerebral ischemia in the Wistar rat; assay: Focal stroke model, permanent MCA/CCA occlusion; format: in vivo; settings: 1 mg/kg intravenously, single bolus two hours after MCA occlusion; measured 24 hours after MCAO; vs vehicle-treated (water) control
Method: To determine the ability of the compounds of the present invention to reduce cell loss resulting from neuronal ischemia, a standard focal cerebral ischemia is induced by permanent occlusion of the left middle cerebral artery (MCA) and common carotid artery (CCA) with one hour occlusion of the right CCA in the Wistar rat. The surgeries are performed using the sub-temporal approach of A. Tamura, et al., J. Cereb. Blood Flow Metab., 1, pp. 53-60, (1981) and its modifications [K. Osbome, et al., J. Neurol Neurosurg. Psychiatry, 50, pp. 402-410 (1987) and S. Menzies, et al., Neurosurgery, 31, pp. 100-107, (1992).]
The compound of Example 13 was evaluated in the focal stroke model involving permanent occlusion of the left MCA (MCAO) and CCA (CCAO) and temporary occlusion of the right CCA in the Wistar rat. This procedure results in a reliably large neocortical infarct volume that is measured by means of vital dye exclusion in serial slices through the brain 24 hours after MCAO. In the present test, compounds were administered using an i.v. or i.p. route of administration two hours after occlusion.

[4] = Rapid screen of prodrug hydrolysis and drug release in plasma; format: in vitro ADME; settings: 10 ug/mL in fresh rat plasma at 37° C.; stock 1 mg/mL in PEG-400; analysis 5 minutes after incubation
Method: A rapid screen to determine the ability of prodrugs to hydrolyze and release the drug (compound of Example 1) is conducted as follows. A 1 mg/mL stock solution of the prodrug is prepared in distilled water or acetonitrile or PEG-400. Plasma from freshly collected rat or human blood is used in this assay. To 1 mL of plasma at 37° C. was added 10 μL of stock solution of prodrug and mixed gently. Immediately after the mixing, 100 μL of plasma was removed and quenched with 300 μL of acetontrile (Zero time sample). Samples were also obtained at 30 minutes and quenched immediately. The quenched samples were centrifuged to obtain a clear supernatant for analysis. The stock solution, T=0 and T=30 samples were analyzed by a HPLC assay that separates the drug from the prodrug. Based on the relative peak areas of prodrug and drug in these samples, different prodrugs are characterized as fast, moderate and slow release agents. For example, in this model, the compound of Example 13 was dissolved in PEG-400 at a concentration of 1 mg/mL and incubated at 10 ug/mL in fresh rat plasma at 37° C.

Row | SMILES | increase of BK current, % of control of IBTX-sensitive current [1] [%] | effect on non-BK native currents in the oocytes [2] | reduction of cortical infarct volume [3] | conversion of prodrug to the compound of Example 1 in plasma [4]
1 | O=c1oc(-c2ccc(C(F)(F)F)cc2)nn1Cc1cc(Cl)ccc1O [Example 1, 3-[(5-Chloro-2-hydroxyphenyl)methyl]-5-[4-(trifluoromethyl)phenyl]-1,3,4-oxadiazol-2(3H)-one] | 126 | did not effect non-BK native currents |  | 
2 | C[N+](C)(C)CCCC(=O)OCOc1ccc(Cl)cc1Cn1nc(-c2ccc(C(F)(F)F)cc2)oc1=O [Example 13, 3-[[[[4-Chloro-2-[[5-[4-(trifluoromethyl)phenyl]-2,3-dihydro-2-oxo-1,3,4oxadiazol-3-yl]methyl]phenoxy]methoxy]carbonyl]propyl]trimethylammonium methanesulfonate] |  |  | about 17% | conversion of the compound of Example 13 to the compound of Example 1
